# Experimental data from ChEMBL document CHEMBL6182948 (J Med Chem, 2025).
# Columns and labels:
# Cytochrome P450 1B1 = target: T1, Cytochrome P450 1B1 (Homo sapiens, UniProt Q16678); experiment: Inhibition of human recombinant CYP1B1 using 7-ethoxyresorufin as substrate incubated under dark condition for 30 mins in presence of NADPH by EROD fluorescence assay; assay type: ADME
# T1 sequence (Q16678 whole entry): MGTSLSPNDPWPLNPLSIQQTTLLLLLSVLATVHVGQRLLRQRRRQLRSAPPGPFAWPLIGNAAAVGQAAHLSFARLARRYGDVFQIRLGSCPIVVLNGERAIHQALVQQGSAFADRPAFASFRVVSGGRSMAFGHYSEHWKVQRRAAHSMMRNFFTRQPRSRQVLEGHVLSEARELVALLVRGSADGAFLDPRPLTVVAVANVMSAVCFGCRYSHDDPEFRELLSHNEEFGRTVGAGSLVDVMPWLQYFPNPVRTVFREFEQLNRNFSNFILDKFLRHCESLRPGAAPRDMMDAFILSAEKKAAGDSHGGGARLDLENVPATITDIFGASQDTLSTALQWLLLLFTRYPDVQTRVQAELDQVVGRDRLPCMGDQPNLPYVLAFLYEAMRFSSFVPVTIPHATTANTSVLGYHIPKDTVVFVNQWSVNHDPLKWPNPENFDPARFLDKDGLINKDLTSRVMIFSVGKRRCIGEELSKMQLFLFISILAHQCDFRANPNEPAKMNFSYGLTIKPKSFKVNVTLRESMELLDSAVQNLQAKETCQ
# Cytochrome P450 1A1 = target: T2, Cytochrome P450 1A1 (Homo sapiens, UniProt P04798); experiment: Inhibition of human recombinant CYP1A1 using 7-ethoxyresorufin as substrate incubated under dark condition for 15 mins in presence of NADPH by EROD fluorescence assay; assay type: ADME
# T2 sequence (P04798 whole entry): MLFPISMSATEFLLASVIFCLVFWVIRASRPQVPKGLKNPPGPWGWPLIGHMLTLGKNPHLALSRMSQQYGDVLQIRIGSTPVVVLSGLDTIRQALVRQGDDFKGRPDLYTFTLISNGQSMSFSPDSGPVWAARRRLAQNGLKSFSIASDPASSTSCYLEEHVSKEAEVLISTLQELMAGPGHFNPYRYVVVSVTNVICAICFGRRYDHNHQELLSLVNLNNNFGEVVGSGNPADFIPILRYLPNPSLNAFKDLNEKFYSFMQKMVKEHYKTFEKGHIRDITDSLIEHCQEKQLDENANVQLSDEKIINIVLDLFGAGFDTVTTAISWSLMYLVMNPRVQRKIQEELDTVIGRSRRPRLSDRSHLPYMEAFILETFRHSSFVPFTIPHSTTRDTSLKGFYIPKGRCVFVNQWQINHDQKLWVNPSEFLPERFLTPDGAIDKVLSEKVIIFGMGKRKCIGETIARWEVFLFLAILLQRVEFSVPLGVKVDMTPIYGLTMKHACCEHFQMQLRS
# Cytochrome P450 1A2 = target: T3, Cytochrome P450 1A2 (Homo sapiens, UniProt P05177); experiment: Inhibition of human recombinant CYP1A2 using 7-ethoxyresorufin as substrate incubated under dark condition for 45 mins in presence of NADPH by EROD fluorescence assay; assay type: ADME
# T3 sequence (P05177 whole entry): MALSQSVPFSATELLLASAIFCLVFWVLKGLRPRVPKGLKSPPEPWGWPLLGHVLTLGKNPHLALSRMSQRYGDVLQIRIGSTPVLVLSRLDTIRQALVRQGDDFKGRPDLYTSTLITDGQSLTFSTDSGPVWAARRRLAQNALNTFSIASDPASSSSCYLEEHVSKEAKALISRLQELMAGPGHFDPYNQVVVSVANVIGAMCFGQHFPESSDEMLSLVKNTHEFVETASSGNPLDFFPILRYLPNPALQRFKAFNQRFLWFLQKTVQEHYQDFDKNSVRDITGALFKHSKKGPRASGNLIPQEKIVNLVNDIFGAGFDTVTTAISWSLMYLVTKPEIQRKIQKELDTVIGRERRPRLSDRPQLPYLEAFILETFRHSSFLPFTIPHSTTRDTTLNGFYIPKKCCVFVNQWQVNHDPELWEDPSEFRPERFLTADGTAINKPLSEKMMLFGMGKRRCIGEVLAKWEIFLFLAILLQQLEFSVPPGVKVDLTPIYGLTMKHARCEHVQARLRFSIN
# Homo sapiens [1] = species on record: Homo sapiens; experiment: Selectivity index, ratio of IC50 for human recombinant CYP1A1 to IC50 for human recombinant CYP1B1 using 7-ethoxyresorufin as substrate
# Homo sapiens [2] = species on record: Homo sapiens; experiment: Selectivity index, ratio of IC50 for human recombinant CYP1A2 to IC50 for human recombinant CYP1B1 using 7-ethoxyresorufin as substrate
Structure (SMILES),IC50 (Cytochrome P450 1B1) [nM],IC50 (Cytochrome P450 1A1) [nM],IC50 (Cytochrome P450 1A2) [nM],Ratio IC50 (Homo sapiens [1]),Ratio IC50 (Homo sapiens [2])
O=C(Nc1ccc(OC(F)F)cc1)c1nc(-c2cccc(F)c2)cs1,0.02,143,688,7170,34400
Cc1sc(C(=O)Nc2cc(Cl)cc(Cl)c2)nc1-c1cccc(Cl)c1,1.71,43.1,> 10000,25.2,> 5850
O=C(Nc1ccc(C(F)(F)F)cc1)c1nc(-c2cccc(Cl)c2)cs1,0.53,52.8,670,99.6,1270
Cc1sc(C(=O)Nc2ccc(C(F)(F)F)cc2)nc1-c1cccc(F)c1,2.12,168,2330,79.2,1100
Cc1sc(C(=O)Nc2cc(Cl)cc(Cl)c2)nc1-c1ccc(F)cc1,1.25,69.2,3650,55.4,2920
O=C(Nc1ccc(Cl)cc1Cl)c1nc(-c2cccc(F)c2)cs1,1.92,149,2380,77.4,1240
CCc1sc(C(=O)Nc2cc(Cl)cc(Cl)c2)nc1-c1ccc(F)cc1,101,226,> 100000,2.2,> 990
O=C(Nc1ccc(C(F)(F)F)cc1)c1nc(-c2cccc(F)c2)cs1,0.29,123,422,426,1470
NC(=O)c1cccc(-c2csc(C(=O)Nc3ccc(OC(F)F)cc3)n2)c1,2.01,64.4,5010,32,2490
NC(=O)c1ccc(-c2csc(C(=O)Nc3ccc(C(F)(F)F)cc3)n2)cc1,0.83,141,> 10000,170,> 12100
O=C(Nc1ccc(OC(F)F)cc1)c1nc(-c2ccc(F)cc2)cs1,0.47,58.1,820,122,1730
NC(=O)c1ccc(-c2csc(C(=O)Nc3ccc(OC(F)F)cc3)n2)cc1,1.03,106,5730,104,5590
COc1cc(NC(=O)c2nc(-c3ccc(F)cc3)cs2)cc(OC)c1,3.83,414,> 10000,108,> 2610
O=C(Nc1ccc(OC(F)F)cc1)c1nc(-c2cccc(Cl)c2)cs1,1.04,55.7,4690,53.5,4500
O=C(Nc1ccc(C(F)(F)F)cc1)c1nc(-c2ccc(Cl)cc2)cs1,0.49,69.2,248,142,510
O=C(Nc1ccc(I)cc1)c1nc(-c2cccc(F)c2)cs1,1.44,150,324,104,225
O=C(Nc1ccc(C(F)(F)F)cc1)c1nc(-c2ccc(F)cc2)cs1,1.07,346,608,323,567
O=C(Nc1ccc(F)cc1F)c1nc(-c2ccc(F)cc2)cs1,0.93,404,213,437,230
O=C(Nc1cc(Cl)cc(Cl)c1)c1nc(-c2ccc(F)cc2)c(-c2ccccc2)s1,1070,121,> 100000,0.1,> 93.7
O=C(Nc1ccc(I)cc1)c1nc(-c2ccc(F)cc2)cs1,3.97,127,641,31.9,162
N#Cc1cccc(-c2csc(C(=O)Nc3ccc(OC(F)F)cc3)n2)c1,9.02,70,> 50000,7.8,> 5550
O=C(Nc1ccccc1)c1nc(-c2ccccc2)cs1,27,597,441,22.1,16.3

# Results, then the compound that gave them:
IC50 (Cytochrome P450 1B1) [nM],IC50 (Cytochrome P450 1A1) [nM],IC50 (Cytochrome P450 1A2) [nM],Ratio IC50 (Homo sapiens [1]),Ratio IC50 (Homo sapiens [2]),Structure (SMILES)
27.4,> 100000,38400,> 3650,1400,O=C(Nc1cc(Cl)cc(Cl)c1)c1nc(-c2ccc([N+](=O)[O-])cc2)cs1
10.3,566,14700,55.1,1430,Cc1ccc(-c2csc(C(=O)Nc3cc(Cl)cc(Cl)c3)n2)cc1
142,962,8340,6.8,58.7,Nc1ccc(-c2csc(C(=O)Nc3cc(Cl)cc(Cl)c3)n2)cc1
7.97,> 100000,> 10000,> 12500,> 1250,NC(=O)c1ccc(-c2csc(C(=O)Nc3cc(Cl)cc(Cl)c3)n2)cc1
22.5,> 10000,1590,> 445,71,O=C(Nc1cc(Cl)cc(Cl)c1)c1nc(-c2ccc(I)cc2)cs1
276,456,9540,1.7,34.5,CC(C)c1ccc(-c2csc(C(=O)Nc3cc(Cl)cc(Cl)c3)n2)cc1
11.6,1340,> 100000,116,> 8640,NC(=O)c1cccc(-c2csc(C(=O)Nc3cc(Cl)cc(Cl)c3)n2)c1
1.21,129,178,107,147,O=C(Nc1cc(Cl)cc(Cl)c1)c1nc(-c2ccccc2F)cs1
1.42,277,4240,195,2990,O=C(Nc1cc(Cl)cc(Cl)c1)c1nc(-c2ccc(F)cc2)cs1
41.6,758,40300,18.2,967,O=C(Nc1cc(Cl)cc(Cl)c1)c1nc(-c2ccc(O)cc2)cs1
2.51,264,4720,105,1880,O=C(Nc1cc(Cl)cc(Cl)c1)c1nc(-c2cccc(F)c2)cs1
242,167,> 100000,0.7,> 413,CC(=O)Nc1ccc(-c2csc(C(=O)Nc3cc(Cl)cc(Cl)c3)n2)cc1
220,> 100000,17100,> 454,77.6,COc1ccc(-c2csc(C(=O)Nc3cc(Cl)cc(Cl)c3)n2)cc1
26.4,> 100000,4390,> 3790,167,O=C(Nc1cc(Cl)cc(Cl)c1)c1nc(-c2ccc(Br)cc2)cs1
4.28,68.3,> 100000,16,> 23400,O=C(Nc1cc(Cl)cc(Cl)c1)c1nc(-c2ccnc(Cl)c2)cs1
